Data from patent US9663508B2, “Biaryl acyl-sulfonamide compounds as sodium channel inhibitors” (AMGEN INC., priority 2013, dated 2017).
Like-named read-outs stand apart in the source and are kept apart here.

Legend:
human Nav 1.5 = human Nav 1.5 (Homo sapiens (Human), UniProt Q14524); assay: Nav 1.5 IonWorks Quattro (IWQ) in vitro assay; assay type: cell-based
Description: Nav 1.7 or Nav 1.5 Ion Works Quattro (IWQ) In Vitro Assay
HEK 293 Cells stably transfected with either human Nay 1.7 or human Nay 1.5 were recorded in population patch-clamp mode with the IonWorks® Quattro automated electrophysiology system in accordance with the manufacturer's specifications (Molecular Devices, LLC, Sunnyvale, Calif.). Sodium channel currents were measured in response to a train of depolarizations that induced successively greater inactivation.
Cells were held at −110 mV for three seconds (Nav 1.7) or half a second (Nav 1.5) from a holding voltage of −15 mV, then put through a series of 26 pulses of 150 msec duration to −20 mV at a frequency of 5 Hz. Cells were then left unclamped for a period of 3 to 8 minutes while a single concentration of test compound was added. Cells were then reclamped and put through the same voltage protocol. Current at the end of the 26th pulse to −20 mV was subtracted from the peak current evoked by the 26th pulse to −20 mV to correct for leak current. Percent block was calculated for each concentration in duplicate, and IC50 curves were fitted to percent block as a function of concentration.

human Nav1.7 = human Nav1.7 (Homo sapiens (Human), UniProt Q15858); assay: Nav 1.7 in vitro PatchXpress (PX) assay; assay type: cell-based
[1] = in-vitro Nav 1.5 IWQ data, read-out: NAV 1.5 IWQ (IC50)

Chain of human Nav1.7 (Q15858 whole entry): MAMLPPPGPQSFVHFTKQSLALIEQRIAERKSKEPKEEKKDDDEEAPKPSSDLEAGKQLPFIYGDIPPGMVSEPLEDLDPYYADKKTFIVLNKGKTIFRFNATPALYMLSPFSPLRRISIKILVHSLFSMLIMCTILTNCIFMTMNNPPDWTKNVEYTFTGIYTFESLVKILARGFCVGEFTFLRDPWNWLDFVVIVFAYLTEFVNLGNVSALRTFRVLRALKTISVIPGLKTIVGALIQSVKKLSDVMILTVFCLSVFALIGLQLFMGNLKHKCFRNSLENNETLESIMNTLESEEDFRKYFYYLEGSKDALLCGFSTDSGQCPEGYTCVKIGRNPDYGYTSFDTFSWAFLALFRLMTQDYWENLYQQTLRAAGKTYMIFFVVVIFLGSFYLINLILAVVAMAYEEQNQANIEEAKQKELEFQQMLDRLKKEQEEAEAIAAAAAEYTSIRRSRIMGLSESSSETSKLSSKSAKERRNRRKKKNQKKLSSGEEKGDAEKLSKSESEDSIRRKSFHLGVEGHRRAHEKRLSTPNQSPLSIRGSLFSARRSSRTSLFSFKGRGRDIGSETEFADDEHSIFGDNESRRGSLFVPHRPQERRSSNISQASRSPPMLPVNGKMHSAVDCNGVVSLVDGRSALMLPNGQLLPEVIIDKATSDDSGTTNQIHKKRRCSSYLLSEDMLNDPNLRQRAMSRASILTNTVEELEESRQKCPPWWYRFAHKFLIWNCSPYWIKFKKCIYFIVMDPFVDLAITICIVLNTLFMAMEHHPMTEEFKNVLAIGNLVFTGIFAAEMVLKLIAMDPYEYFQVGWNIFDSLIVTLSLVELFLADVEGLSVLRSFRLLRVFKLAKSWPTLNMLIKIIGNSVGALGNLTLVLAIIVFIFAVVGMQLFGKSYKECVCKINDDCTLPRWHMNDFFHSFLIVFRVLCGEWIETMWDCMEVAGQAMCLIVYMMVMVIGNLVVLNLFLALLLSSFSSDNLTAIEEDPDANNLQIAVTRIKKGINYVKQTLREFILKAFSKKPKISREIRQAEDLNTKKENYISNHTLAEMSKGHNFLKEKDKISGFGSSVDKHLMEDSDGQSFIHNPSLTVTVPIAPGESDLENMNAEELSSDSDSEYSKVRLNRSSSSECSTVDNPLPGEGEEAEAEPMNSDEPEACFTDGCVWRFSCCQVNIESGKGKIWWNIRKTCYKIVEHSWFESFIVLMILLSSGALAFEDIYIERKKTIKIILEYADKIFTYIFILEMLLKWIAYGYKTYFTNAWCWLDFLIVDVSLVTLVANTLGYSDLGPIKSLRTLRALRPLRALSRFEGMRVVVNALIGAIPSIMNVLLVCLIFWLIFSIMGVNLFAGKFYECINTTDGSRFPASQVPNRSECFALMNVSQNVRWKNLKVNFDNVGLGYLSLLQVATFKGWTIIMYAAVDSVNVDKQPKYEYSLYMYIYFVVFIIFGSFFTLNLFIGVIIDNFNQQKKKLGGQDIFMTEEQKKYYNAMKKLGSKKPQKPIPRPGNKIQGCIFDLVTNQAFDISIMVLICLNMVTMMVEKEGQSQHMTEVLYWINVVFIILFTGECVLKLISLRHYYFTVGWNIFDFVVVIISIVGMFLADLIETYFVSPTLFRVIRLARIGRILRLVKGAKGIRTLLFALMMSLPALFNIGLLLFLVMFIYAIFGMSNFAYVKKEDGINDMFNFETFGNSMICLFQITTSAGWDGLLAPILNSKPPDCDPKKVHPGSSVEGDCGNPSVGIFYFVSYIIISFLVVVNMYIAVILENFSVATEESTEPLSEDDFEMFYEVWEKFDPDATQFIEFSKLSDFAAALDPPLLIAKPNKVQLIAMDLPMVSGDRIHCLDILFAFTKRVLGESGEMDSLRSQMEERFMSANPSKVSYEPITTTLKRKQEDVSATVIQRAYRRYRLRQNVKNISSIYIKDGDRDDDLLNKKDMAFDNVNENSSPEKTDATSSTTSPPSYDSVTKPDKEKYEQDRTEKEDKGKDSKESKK
Chain of human Nav 1.5 (Q14524 whole entry): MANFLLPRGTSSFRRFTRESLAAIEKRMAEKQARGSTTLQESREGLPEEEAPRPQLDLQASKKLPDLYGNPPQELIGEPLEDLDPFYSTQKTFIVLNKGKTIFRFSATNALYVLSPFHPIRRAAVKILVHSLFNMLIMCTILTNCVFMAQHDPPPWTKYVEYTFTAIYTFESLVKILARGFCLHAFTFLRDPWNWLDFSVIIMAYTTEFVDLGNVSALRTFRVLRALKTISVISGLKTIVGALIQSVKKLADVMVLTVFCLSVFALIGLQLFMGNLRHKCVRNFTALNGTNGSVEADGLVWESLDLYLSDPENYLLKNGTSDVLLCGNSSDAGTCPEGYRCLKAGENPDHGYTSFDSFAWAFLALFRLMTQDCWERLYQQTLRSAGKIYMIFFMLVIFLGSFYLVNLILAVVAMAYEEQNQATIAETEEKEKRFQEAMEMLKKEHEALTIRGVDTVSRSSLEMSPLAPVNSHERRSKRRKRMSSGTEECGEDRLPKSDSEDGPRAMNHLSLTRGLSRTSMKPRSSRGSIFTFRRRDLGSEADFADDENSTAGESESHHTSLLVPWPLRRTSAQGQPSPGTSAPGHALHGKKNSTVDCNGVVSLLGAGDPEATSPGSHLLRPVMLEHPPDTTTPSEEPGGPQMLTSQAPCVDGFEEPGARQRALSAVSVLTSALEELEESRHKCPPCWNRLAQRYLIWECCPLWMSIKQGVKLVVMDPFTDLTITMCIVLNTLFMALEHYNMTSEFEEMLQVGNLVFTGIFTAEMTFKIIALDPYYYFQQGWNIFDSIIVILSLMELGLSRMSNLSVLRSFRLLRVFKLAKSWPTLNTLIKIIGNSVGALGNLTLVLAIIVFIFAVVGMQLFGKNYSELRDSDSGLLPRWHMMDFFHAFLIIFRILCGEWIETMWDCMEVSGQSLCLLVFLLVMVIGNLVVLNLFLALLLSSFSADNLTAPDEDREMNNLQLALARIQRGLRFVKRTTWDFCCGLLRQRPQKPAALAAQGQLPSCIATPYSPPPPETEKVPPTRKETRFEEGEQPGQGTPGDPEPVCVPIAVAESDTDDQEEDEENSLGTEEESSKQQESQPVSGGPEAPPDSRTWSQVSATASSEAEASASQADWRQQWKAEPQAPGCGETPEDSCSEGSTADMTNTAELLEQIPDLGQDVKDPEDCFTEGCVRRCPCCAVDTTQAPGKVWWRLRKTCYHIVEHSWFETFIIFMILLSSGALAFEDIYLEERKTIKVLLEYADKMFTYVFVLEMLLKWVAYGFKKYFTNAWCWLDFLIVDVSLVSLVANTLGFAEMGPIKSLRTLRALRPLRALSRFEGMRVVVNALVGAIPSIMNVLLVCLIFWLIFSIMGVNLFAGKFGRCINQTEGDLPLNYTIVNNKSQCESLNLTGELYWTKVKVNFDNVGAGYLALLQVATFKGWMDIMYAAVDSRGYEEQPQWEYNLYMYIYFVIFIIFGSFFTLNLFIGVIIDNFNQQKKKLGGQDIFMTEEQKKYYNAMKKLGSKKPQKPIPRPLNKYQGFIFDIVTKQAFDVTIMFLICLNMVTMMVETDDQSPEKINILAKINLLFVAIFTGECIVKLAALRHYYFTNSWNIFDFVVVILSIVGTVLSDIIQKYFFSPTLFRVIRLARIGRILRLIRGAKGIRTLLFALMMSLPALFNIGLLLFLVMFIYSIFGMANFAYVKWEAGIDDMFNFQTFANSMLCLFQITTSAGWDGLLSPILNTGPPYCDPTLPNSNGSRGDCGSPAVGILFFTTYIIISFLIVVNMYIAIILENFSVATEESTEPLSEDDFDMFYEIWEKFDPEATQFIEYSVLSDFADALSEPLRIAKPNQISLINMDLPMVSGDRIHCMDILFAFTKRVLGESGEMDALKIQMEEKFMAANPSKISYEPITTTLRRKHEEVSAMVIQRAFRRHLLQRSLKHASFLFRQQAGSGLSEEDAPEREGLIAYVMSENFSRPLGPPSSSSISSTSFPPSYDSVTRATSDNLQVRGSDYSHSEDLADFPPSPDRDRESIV

Structure (SMILES) | IC50 (human Nav1.7; in-vitro Nav 1.7 PX data) | IC50 (human Nav1.7) | IC50 (human Nav 1.5; [1]) | IC50 (human Nav 1.5; read-out: NAV 1.5 IWQ IC50) | IC50 (human Nav 1.5)
Cc1cc(C(=O)NS(C)(=O)=O)c(F)cc1-c1cnc(O[C@@H](C)c2nc3ccccc3s2)c(Cl)c1 [Example 710, 4-(6-((1S)-1-(1,3-benzothiazol-2-yl)ethoxy)-5-chloro-3-pyridinyl)-2-fluoro-5-methyl-N-(methylsulfonyl)benzamide] | 0.0873 µM | – | > 3 µM | – | –
Cc1cc(C(=O)NS(C)(=O)=O)c(F)cc1-c1cnc(OCCC(C)C)c(Cl)c1 [Example 637, 4-(5-chloro-6-(3-methylbutoxy)-3-pyridinyl)-2-fluoro-5-methyl-N-(methylsulfonyl)benzamide] | – | 0.0877 µM | – | > 3 µM | –
COc1cc(C(=O)NS(C)(=O)=O)ccc1-c1cnc(Oc2cc(Cl)cc(Cl)c2)c(Cl)c1 [Example 348, 4-(5-chloro-6-(3,5-dichlorophenoxy)-3-pyridinyl)-3-methoxy-N-(methylsulfonyl)benzamide] | – | 0.0345 µM | – | 5.74 µM | –
Cc1cc(C(=O)NS(C)(=O)=O)c(F)cc1-c1cnc(Oc2c(C)cccc2C(C)(C)C)c(Cl)c1 [Example 633, 4-(6-(2-tert-butyl-6-methylphenoxy)-5-chloro-3-pyridinyl)-2-fluoro-5-methyl-N-(methylsulfonyl)benzamide] | – | 0.0833 µM | – | > 3 µM | –
Cc1cc(C(=O)NS(=O)(=O)C2CC2)c(F)cc1-c1cnc(Oc2c(C)cc(Cl)cc2Cl)c(Cl)c1 [Example 801, 4-(5-chloro-6-(2,4-dichloro-6-methylphenoxy)-3-pyridinyl)-N-(cyclopropylsulfonyl)-2-fluoro-5-methylbenzamide] | 0.0563 µM | – | 0.485 µM | – | –
Cc1cc(C(=O)NS(C)(=O)=O)c(F)cc1-c1cnc(N2CCC[C@@H]2c2ccc(Cl)c(Cl)c2)c(Cl)c1 [Example 658, 4-(5-chloro-6-((2R)-2-(3,4-dichlorophenyl)-1-pyrrolidinyl)-3-pyridinyl)-2-fluoro-5-methyl-N-(methylsulfonyl)benzamide, 4-(5-chloro-6-((2S)-2-(3,4-dichlorophenyl)-1-pyrrolidinyl)-3-pyridinyl)-2-fluoro-5-methyl-N-(methylsulfonyl)benzamide] | – | 0.0899 µM | – | > 3 µM | –
Cc1cc(C(=O)NS(C)(=O)=O)c(F)cc1-c1cnc(Oc2ccc(Cl)cc2Cl)c(Cl)c1 [Example 665, 4-(5-chloro-6-(2,4-dichlorophenoxy)-3-pyridinyl)-2-fluoro-5-methyl-N-(methylsulfonyl)benzamide] | – | 0.0357 µM | – | 4.68 µM | –
C[C@@](Oc1ncc(-c2cc(F)c(C(=O)NS(C)(=O)=O)cc2F)cc1Cl)(c1ccccc1)C(F)(F)F [Example 566, 4-(5-chloro-6-((1R)-2,2,2-trifluoro-1-methyl-1-phenylethoxy)-3-pyridinyl)-2,5-difluoro-N-(methylsulfonyl)benzamide, 4-(5-chloro-6-((1S)-2,2,2-trifluoro-1-methyl-1-phenylethoxy)-3-pyridinyl)-2,5-difluoro-N-(methylsulfonyl)benzamide] | – | 0.0731 µM | – | > 3 µM | –
Cc1ccc(Cl)cc1Oc1ncc(-c2cc(F)c(C(=O)NS(C)(=O)=O)cc2C)cc1Cl [Example 616, 4-(5-chloro-6-(5-chloro-2-methylphenoxy)-3-pyridinyl)-2-fluoro-5-methyl-N-(methylsulfonyl)benzamide] | – | 0.0708 µM | – | > 3 µM | –
Cc1ccc([C@H]2CCCN2c2ncc(-c3cc(F)c(C(=O)NS(C)(=O)=O)cc3C)cc2Cl)cc1 [Example 657, 4-(5-chloro-6-((2R)-2-(4-methylphenyl)-1-pyrrolidinyl)-3-pyridinyl)-2-fluoro-5-methyl-N-(methylsulfonyl)benzamide, 4-(5-chloro-6-((2S)-2-(4-methylphenyl)-1-pyrrolidinyl)-3-pyridinyl)-2-fluoro-5-methyl-N-(methylsulfonyl)benzamide] | – | 0.0929 µM | – | > 3 µM | –
Cc1cc(C(=O)NS(C)(=O)=O)c(F)cc1-c1cnc(O[C@H](C)CCc2ccccc2)c(Cl)c1 [Example 638, 4-(5-chloro-6-(((1R)-1-methyl-3-phenylpropyl)oxy)-3-pyridinyl)-2-fluoro-5-methyl-N-(methylsulfonyl)benzamide, 4-(5-chloro-6-(((1S)-1-methyl-3-phenylpropyl)oxy)-3-pyridinyl)-2-fluoro-5-methyl-N-(methylsulfonyl)benzamide] | – | 0.08 µM | – | > 3 µM | –
Cc1cc(C(=O)NS(C)(=O)=O)c(F)cc1-c1cnc(Oc2ccc(C)c(F)c2F)c(Cl)c1 [Example 643, 4-(5-chloro-6-(2,3-difluoro-4-methylphenoxy)-3-pyridinyl)-2-fluoro-5-methyl-N-(methylsulfonyl)benzamide] | – | 0.0792 µM | – | 5.44 µM | –
Cc1cc(C(=O)NS(C)(=O)=O)c(F)cc1-c1cnc(OCc2nc3ccccc3s2)c(Cl)c1 [Example 636, 4-(6-(1,3-benzothiazol-2-ylmethoxy)-5-chloro-3-pyridinyl)-2-fluoro-5-methyl-N-(methylsulfonyl)benzamide] | – | 0.0557 µM | – | > 3 µM | –
Cc1cc(Cl)cc(Cl)c1Oc1ncc(-c2cc(F)c(C(=O)NS(C)(=O)=O)cc2F)cc1Br [Example 575, 4-(5-bromo-6-(2,4-dichloro-6-methylphenoxy)-3-pyridinyl)-2,5-difluoro-N-(methylsulfonyl)benzamide] | – | 0.0424 µM | – | > 4.9 µM | –
COc1ccccc1C[C@@H](C)Oc1ncc(-c2cc(F)c(C(=O)NS(C)(=O)=O)cc2C)cc1Cl [Example 649, 4-(5-chloro-6-((1R)-2-(2-methoxyphenyl)-1-methylethoxy)-3-pyridinyl)-2-fluoro-5-methyl-N-(methylsulfonyl)benzamide, 4-(5-chloro-6-((1S)-2-(2-methoxyphenyl)-1-methylethoxy)-3-pyridinyl)-2-fluoro-5-methyl-N-(methylsulfonyl)benzamide] | – | 0.0929 µM | – | > 3 µM | –
Cc1cc(C(=O)NS(C)(=O)=O)c(F)cc1-c1cnc(Oc2ccc(Cl)c(Cl)c2)c(Cl)c1 [Example 664, 4-(5-chloro-6-(3,4-dichlorophenoxy)-3-pyridinyl)-2-fluoro-5-methyl-N-(methylsulfonyl)benzamide] | – | 0.0806 µM | – | > 10 µM | –
COc1cc(C(=O)NS(C)(=O)=O)ccc1-c1cnc(OCc2ccc(Cl)cc2)c(Cl)c1 [Example 576, 4-(5-chloro-6-((4-chlorobenzyl)oxy)-3-pyridinyl)-3-methoxy-N-(methylsulfonyl)benzamide] | – | 0.07 µM | – | – | > 3 µM
Cc1cc(C(=O)NS(C)(=O)=O)ccc1-c1cnc(Oc2c(C)cc(Cl)cc2Cl)c(Cl)c1 [Example 775, 4-(5-Chloro-6-(2,4-Dichloro-6-Methylphenoxy)-3-Pyridinyl)-3-Methyl-N-(Methyl Sulfonyl)Benzamide] | 0.0782 µM | – | > 4.9 µM | – | –

More lines, main results first:

IC50 (human Nav1.7; in-vitro Nav 1.7 PX data) | IC50 (human Nav1.7) | Structure (SMILES) | IC50 (human Nav 1.5; [1]) | IC50 (human Nav 1.5; read-out: NAV 1.5 IWQ IC50) | IC50 (human Nav 1.5)
– | 0.0999 µM | Cc1cc(C(=O)NS(C)(=O)=O)c(F)cc1-c1cnc(N2CCC[C@H]2c2ccccc2)c(Cl)c1 [Example 646, 4-(5-chloro-6-((2S)-2-phenyl-1-pyrrolidinyl)-3-pyridinyl)-2-fluoro-5-methyl-N-(methylsulfonyl)benzamide] | – | > 3 µM | –
– | 0.059 µM | COc1cc(C(=O)NS(C)(=O)=O)c(F)cc1-c1cnc(Oc2ccc(C)c(F)c2)c(Cl)c1 [Example 698, 4-(5-chloro-6-(3-fluoro-4-methylphenoxy)-3-pyridinyl)-2-fluoro-5-methoxy-N-(methylsulfonyl)benzamide] | – | 6.05 µM | –
– | 0.0948 µM | Cc1ccc(Oc2ncc(-c3cc(F)c(C(=O)NS(C)(=O)=O)cc3C)cc2Cl)c(C(C)(C)C)c1 [Example 634, 4-(6-(2-tert-butyl-4-methylphenoxy)-5-chloro-3-pyridinyl)-2-fluoro-5-methyl-N-(methylsulfonyl)benzamide] | – | > 3 µM | –
0.0248 µM | – | CCS(=O)(=O)NC(=O)c1ccc(-c2cnc(Oc3c(C)cc(Cl)cc3Cl)c(Cl)c2)c(OC)c1 [Example 788, 4-(5-chloro-6-(2,4-dichloro-6-methylphenoxy)-3-pyridinyl)-N-(ethylsulfonyl)-3-methoxybenzamide] | 1.38 µM | – | –
– | 0.0856 µM | Cc1ccc(Oc2ncc(-c3cc(F)c(C(=O)NS(C)(=O)=O)cc3Cl)cc2Cl)cc1F [Example 591, 5-chloro-4-(5-chloro-6-(3-fluoro-4-methylphenoxy)-3-pyridinyl)-2-fluoro-N-(methylsulfonyl)benzamide] | – | > 3 µM | –
– | 0.0505 µM | Cc1cc(C(=O)NS(C)(=O)=O)c(F)cc1-c1cnc(Oc2cc(Cl)c(Cl)cc2Cl)c(Cl)c1 [Example 667, 4-(5-chloro-6-(2,4,5-trichlorophenoxy)-3-pyridinyl)-2-fluoro-5-methyl-N-(methylsulfonyl)benzamide] | – | 7.45 µM | –
0.096 µM | – | CCS(=O)(=O)NC(=O)c1cc(C)c(-c2cnc(Oc3c(C)cc(Cl)cc3Cl)c(Cl)c2)cc1F [Example 800, 4-(5-chloro-6-(2,4-dichloro-6-methylphenoxy)-3-pyridinyl)-N-(ethylsulfonyl)-2-fluoro-5-methylbenzamide] | 1.25 µM | – | –
– | 0.0927 µM | Cc1cc(C(=O)NS(C)(=O)=O)c(F)cc1-c1cnc(Oc2ccc(Cl)c3ccccc23)c(Cl)c1 [Example 613, 4-(5-chloro-6-((4-chloro-1-naphthalenyl)oxy)-3-pyridinyl)-2-fluoro-5-methyl-N-(methylsulfonyl)benzamide] | – | > 3 µM | –
– | 0.095 µM | Cc1cc(C(=O)NS(C)(=O)=O)c(F)cc1-c1cnc(Oc2cccc(C)c2F)c(Cl)c1 [Example 618, 4-(5-chloro-6-(2-fluoro-3-methylphenoxy)-3-pyridinyl)-2-fluoro-5-methyl-N-(methylsulfonyl)benzamide] | – | > 3 µM | –
0.0828 µM | – | COc1cc(C(=O)NS(C)(=O)=O)ccc1-c1cnc(Oc2cc(Cl)cc(Cl)c2)c(C)c1 [Example 841, 4-(6-(3,5-Dichlorophenoxy)-5-Methyl-3-Pyridinyl)-3-Methoxy-N-(Methylsulfonyl)Benzamide] | > 3 µM | – | –
0.11 µM | – | CCCS(=O)(=O)NC(=O)c1cc(C)c(-c2cnc(OC3CCC3)c(Cl)c2)cc1F [Example 796, 4-(5-chloro-6-(cyclobutyloxy)-3-pyridinyl)-2-fluoro-5-methyl-N-(propylsulfonyl)benzamide] | 9.31 µM | – | –
